Laboratory results published in US20160280743A1, “BACTERIAL MUTANTS AND METHODS OF USE” (priority 2015, published 2016).
Converted amounts (≈) assume the structure as drawn. Read-outs that look alike come from different tables or passages of the source.

What was measured:
[1] = test system: P. aeruginosa PAO1Δ3 (Δ3); conditions: P. aeruginosa Δ3 without pore; 0.1 mM IPTG; LB, 37° C., 16 h
Method: (§3) Susceptibilities of E. coli and P. aeruginosa cells to different classes of antibiotics were determined by two-fold broth dilution method [1] with following modifications. Cells were grown in Luria-Bertani (LB) broth (tryptone 10 g/L, yeast extract 5 g/L and NaCl 5 g/L) with appropriate selection markers as needed, at 37° C. with shaking at 200 rpm. When needed, at OD600˜0.3, either L-arabinose (final concentration 0.1%) or IPTG (final concentration 0.1 mM) were added to induce the expression of the pore and cells were further incubated until OD600 reached 1.0. MICs of various antimicrobial agents were measured in 96-well micro-titer plates. For this purpose, exponentially growing cells were inoculated at a density of 10^5 cells/ml into wells containing LB medium in the presence of two-fold increasing concentrations of drugs under investigation at constant inducer concentration of 0.1% arabinose for E. coli or 0.1 mM IPTG for P. aeruginosa strains. Cell growth was determined visually or using Spark 10M microplate reader (Tecan) after incubation of the micro-titer plates at 37° C. for 16 h.
(§4) For this purpose, induced cells were dispensed into 96-well microplates with LB medium containing two-fold dilutions of an antibiotic of interest and a respective concentration of an inducer.

[2] = test system: P. aeruginosa Δ3; assay: Vancomycin disc susceptibility assay, P. aeruginosa Δ3; type: cell-based; conditions: Pseudomonas aeruginosa, 200 μg vancomycin disc, read-out: Zone of clearance
Method: (§1) Vancomycin susceptibility spot assay. Indicated E. coli (A) and P. aeruginosa (B) strains were seeded onto LB agar plates, ˜10^8 cells per plate, with and without inducers 0.1% arabinose and 0.1 mM IPTG, respectively. […] Seeded plates were incubated overnight at 37° C. Large clearance zones can be clearly seen in the presence of inducers.

[3] = test system: P. aeruginosa PAO1; assay: Vancomycin disc susceptibility assay, P. aeruginosa PAO1; type: cell-based; conditions: Pseudomonas aeruginosa, 200 μg vancomycin disc, read-out: Zone of clearance
Method: (§2) Vancomycin susceptibility spot assay. […] […] Seeded plates were incubated overnight at 37° C. Large clearance zones can be clearly seen in the presence of inducers.

[4] = test system: P. aeruginosa PAO1-Pore; assay: Vancomycin disc susceptibility assay, P. aeruginosa PAO1-Pore; type: cell-based; conditions: Pseudomonas aeruginosa, 200 μg vancomycin disc, read-out: Zone of clearance
Method: as §1

[5] = test system: P. aeruginosa Δ3-Pore (GKCW116, FhuAΔC/Δ4L pore); assay: MIC, two-fold broth dilution, P. aeruginosa Δ3-Pore; conditions: for MIC Δ3 Pore: P. aeruginosa Δ3-Pore, 0.1 mM IPTG, LB, 37° C., 16 h
Method: as §3, §4

[6] = test system: E. coli WT; assay: Vancomycin disc susceptibility assay, E. coli WT; type: cell-based; conditions: Escherichia coli, 100 μg vancomycin disc, read-out: Zone of clearance
Method: as §1

[7] = test system: P. aeruginosa Δ3-Pore; assay: Vancomycin disc susceptibility assay, P. aeruginosa Δ3-Pore; type: cell-based; conditions: Pseudomonas aeruginosa, 200 μg vancomycin disc, read-out: Zone of clearance
Method: as §1

[8] = test system: E. coli WT-Pore; assay: Vancomycin disc susceptibility assay, E. coli WT-Pore; type: cell-based; conditions: Escherichia coli, read-out: Zone of clearance, E. coli WT-Pore, 100 μg vancomycin disc
Method: as §1

[9] = test system: E. coli ΔTolC-Pore (GKCW103, FhuAΔC/Δ4L pore); conditions: 0.1% arabinose, LB, 37° C., 16 h
Method: as §3, §4

[10] = test system: E. coli ΔTolC-Pore; assay: Vancomycin disc susceptibility assay, E. coli ΔTolC-Pore; type: cell-based; conditions: Escherichia coli, read-out: Zone of clearance, E. coli ΔTolC-Pore, 100 μg vancomycin disc
Method: as §2

[11] = test system: E. coli BW 25113 (WT); assay: microbe, parasite or virus in culture; conditions: Escherichia coli, 16 h, read-out: MIC BW 25113 (WT) —
Method: as §3, §4

[12] = test system: E. coli GD102 (ΔTolC); conditions: E. coli ΔTolC without pore; 0.1% arabinose; LB, 37° C., 16 h
Method: as §3, §4

[13] = test system: E. coli WT-Pore (GKCW101, FhuAΔC/Δ4L pore); assay: microbe, parasite or virus in culture; conditions: Escherichia coli, 16 h, read-out: MIC BW 25113 (WT) Pore
Method: as §3, §4

[14] = test system: E. coli ΔTolC; assay: Vancomycin disc susceptibility assay, E. coli ΔTolC; type: cell-based; conditions: Escherichia coli, read-out: Zone of clearance, E. coli ΔTolC, 100 μg vancomycin disc
Method: as §1

[15] = test system: P. aeruginosa PAO1; assay: microbe, parasite or virus in culture; conditions: Pseudomonas aeruginosa
Method: as §3, §4

[16] = test system: P. aeruginosa PAO1, PAO1-Pore, Δ3, Δ3-Pore; assay: Fold MIC change between P. aeruginosa strains (OM barrier, efflux); type: cell-based, Pseudomonas aeruginosa; conditions: for Fold MIC change, Efflux, PAO1-Pore/Δ3-Pore / Fold MIC change, Efflux, PAO1/Δ3 / Fold MIC change, OM barrier, PAO1/PAO1-Pore / Fold MIC change, OM barrier, Δ3/Δ3-Pore: P. aeruginosa
[17] = test system: E. coli WT, WT-Pore, ΔTolC, ΔTolC-Pore; type: cell-based, Escherichia coli; conditions: E. coli
[18] = test system: P. aeruginosa PAO1, PAO1-Pore, Δ3, Δ3-Pore cells; assay: Azithromycin uptake into P. aeruginosa cells by LC-MS; conditions: 5 μM; 0.1 mM IPTG; LC-MS (FIG. 5C)
Method: For LC-MS analyses, P. aeruginosa cells were grown to stationary phase in 50 mM MOPS (pH 7.2) M9 minimal medium supplemented with 1% glycerol and trace ions at 37° C. Stationary phase cells were subcultured 1:100 for 16 hours in the same fresh medium at 37° C. After 16 hours, cultures were induced with 0.1 mM IPTG for 4 hours at 37° C. Cells were collected by centrifugation at room temperature and resuspended in PMG buffer at one-tenth the original culture volume. […] At appropriate time points, 100 μl of cells were removed and collected onto filter plates using a HTS Vacuum Manifold (EMD Millipore). Filters were dried overnight and extracted in a two-step process using 1) 800 μl of 100% HPLC grade methanol and 2) 200 μl of 80% HPLC methanol: 20% ultrapure water. […] For HPLC, two mobile phases (A—100% water, B—100% acetonitrile; both with 0.1% formic acid) were used with a step gradient of 20, 50 and 100% of B for 1, 4, and 11 min, respectively.

[19] = PAO1, 16 h, read-out: MIC PAO1 —

`CN[C@H](CC(C)C)C(=O)N[C@H]1C(=O)N[C@@H](CC(N)=O)C(=O)N[C@H]2C(=O)N[C@H]3C(=O)N[C@H](C(=O)N[C@H](C(=O)O)c4cc(O)cc(O)c4-c4cc3ccc4O)[C@H](O)c3ccc(c(Cl)c3)Oc3cc2cc(c3O[C@@H]2O[C@H](CO)[C@@H](O)[C@H](O)[C@H]2O[C@H]2C[C@](C)(N)[C@H](O)[C@H](C)O2)Oc2ccc(cc2Cl)[C@H]1O` [Vancomycin] was tested, and the “MIC Δ3 —” value [1] was 1024 µg/mL (≈ 707 µM), the zone of inhibition at 200 µg/disc ([2]; Arabinose (0.1%)) was 12 mm and the zone of inhibition at 200 µg/disc ([2]; IPTG (0.1 mM)) was 9 mm. For the same compound, the zone of inhibition at 200 µg/disc ([2]; No inducer) was 10 mm, the zone of inhibition at 200 µg/disc ([3]; Arabinose (0.1%)) was 12 mm and the zone of inhibition at 200 µg/disc ([3]; IPTG (0.1 mM)) was 10 mm. The zone of inhibition at 200 µg/disc ([3]; No inducer) was 11 mm, the zone of inhibition at 200 µg/disc ([4]; Arabinose (0.1%)) was 21 mm and the zone of inhibition at 200 µg/disc ([4]; IPTG (0.1 mM)) was 19 mm. The “MIC Δ3 Pore” value [5] was 64 µg/mL (≈ 44.2 µM), the zone of inhibition at 100 µg/disc ([6]; Arabinose (0.1%)) was 6 mm and the zone of inhibition at 100 µg/disc ([6]; IPTG (0.1 mM)) was 6 mm. It also gave a zone of inhibition at 100 µg/disc ([6]; No inducer) of 5 mm, a zone of inhibition at 200 µg/disc ([7]; Arabinose (0.1%)) of 22 mm and a zone of inhibition at 200 µg/disc ([7]; IPTG (0.1 mM)) of 18 mm. For the same compound, the zone of inhibition at 200 µg/disc ([7]; No inducer) was 12 mm, the zone of inhibition at 100 µg/disc ([8]; Arabinose (0.1%)) was 16 mm and the zone of inhibition at 100 µg/disc ([8]; IPTG (0.1 mM)) was 11 mm. For the same compound, the zone of inhibition at 100 µg/disc ([8]; No inducer) was 8 mm, the “MIC GD102 (ΔTolC) Pore” value [9] was 4 µg/mL (≈ 2.76 µM) and the zone of inhibition at 100 µg/disc ([10]; Arabinose (0.1%)) was 15 mm. The zone of inhibition at 100 µg/disc ([10]; IPTG (0.1 mM)) was 16 mm, the zone of inhibition at 100 µg/disc ([10]; No inducer) was 7 mm and the MIC [11] was 128 µg/mL (≈ 88.3 µM). For the same compound, the “MIC GD102 (ΔTolC) —” value [12] was 256 µg/mL (≈ 177 µM), the MIC [13] was 8 µg/mL (≈ 5.52 µM) and the zone of inhibition at 100 µg/disc ([14]; Arabinose (0.1%)) was 6 mm. It also gave a zone of inhibition at 100 µg/disc ([14]; IPTG (0.1 mM)) of 5 mm, a zone of inhibition at 100 µg/disc ([14]; No inducer) of 5 mm and an MIC [15, 19] of 2050 µg/mL. For the same compound, the “Fold MIC change, Efflux, PAO1-Pore/Δ3-Pore” value [16] was 2 fold, the “Fold MIC change, Efflux, PAO1/Δ3” value [16] was 2 fold and the “Fold MIC change, OM barrier, PAO1/PAO1-Pore” value [16] was 16 fold. For the same compound, the “Fold MIC change, OM barrier, Δ3/Δ3-Pore” value [16] was 16 fold, the “Fold MIC change, Efflux, WT-Pore/ΔTolC-Pore” value [17] was 2 fold and the “Fold MIC change, Efflux, WT/ΔTolC” value [17] was 0.5 fold. For the same compound, the “Fold MIC change, OM barrier, WT/WT-Pore” value [17] was 16 fold and the “Fold MIC change, OM barrier, ΔTolC/ΔTolC-Pore” value [17] was 64 fold.
For `CC[C@H]1OC(=O)[C@H](C)[C@@H](O[C@H]2C[C@@](C)(OC)[C@@H](O)[C@H](C)O2)[C@H](C)[C@@H](O[C@@H]2O[C@H](C)C[C@H](N(C)C)[C@H]2O)[C@](C)(O)C[C@@H](C)CN(C)[C@H](C)[C@@H](O)[C@]1(C)O` [Azithromycin], the “MIC Δ3 —” value [1] was 4 µg/mL (≈ 5.34 µM), the “MIC Δ3 Pore” value [5] was 0.063 µg/mL (≈ 0.0841 µM) and the “MIC in P. aeruginosa Δ3-Pore cells” value ([5]; induced, plateau with increasing IPTG (FIG. 5)) was 0.083 µM (≈ 0.0622 µg/mL). For the same compound, the “MIC GD102 (ΔTolC) Pore” value [9] was 0.031 µg/mL (≈ 0.0414 µM), the MIC [11] was 2 µg/mL (≈ 2.67 µM) and the “MIC GD102 (ΔTolC) —” value [12] was 0.5 µg/mL (≈ 0.668 µM). For the same compound, the MIC [13] was 0.5 µg/mL (≈ 0.668 µM), the MIC [15, 19] was 128 µg/mL and the MIC ([15]; PAO1, read-out: MIC in P. aeruginosa PAO1 cells) was 171 µM. For the same compound, the “Accumulation of azithromycin in permeabilized PAO1-Pore and Δ3-Pore cells” value [18] was “significantly higher than PAO1 and Δ3 cells”, the “Decrease of MIC from PAO1 cells to induced Δ3-Pore cells” value ([16]; FIG. 5B) was “more than 2000 fold” and the “Drop in MIC in PAO1-Pore cells with increasing inducer” value ([16]; IPTG (FIG. 5)) was 32 fold. For the same compound, the “Drop in MIC in Δ3-Pore cells with increasing inducer” value ([16]; IPTG (FIG. 5)) was 64 fold, the “Fold MIC change, Efflux, PAO1-Pore/Δ3-Pore” value [16] was 64 fold and the “Fold MIC change, Efflux, PAO1/Δ3” value [16] was 32 fold. For the same compound, the “Fold MIC change, OM barrier, PAO1/PAO1-Pore” value [16] was 32 fold, the “Fold MIC change, OM barrier, Δ3/Δ3-Pore” value [16] was 64 fold and the “Fold MIC change, Efflux, WT-Pore/ΔTolC-Pore” value [17] was 16 fold. For the same compound, the “Fold MIC change, Efflux, WT/ΔTolC” value [17] was 4 fold, the “Fold MIC change, OM barrier, WT/WT-Pore” value [17] was 4 fold and the “Fold MIC change, OM barrier, ΔTolC/ΔTolC-Pore” value [17] was 16 fold.
